# Measurements taken from patent EP4755891A1, “ARF1 INHIBITOR AND USE THEREOF” (AOBIO PHARMACEUTICAL CO., LTD., priority 2023, dated 2025).
# Entries after “also recorded” stand apart in the source; their conditions may differ.
# What was measured:
# NF-κB signaling pathway = assay: Activation of NF-κB signaling pathway (phosphorylated P65, Western blot); assay type: cell-based, Murine; conditions: CT26 cells; FIG. 6
# Procedure: In this example, Compounds 3 and 9 synthesized in the above preparation examples were tested for their ability to activate the NF-κB signaling pathway, as indicated by an increase of phosphorylated P65. GCA, a known Arf1 inhibitor, was used as a positive control.
# In CT26 cells treated with DMSO, GCA, Compound 3, or Compound 9, the relevant protein levels were evaluated by Western blot analysis as previously described (Wang et al., 2020).
# [1] = tested on: Drosophila orthotopic tumors; assay: Inhibition of orthotopic tumor growth in Drosophila; assay type: in vivo; conditions: 5 µM in food, 4 days; Ras^V12-PMML clones; FIG. 7
# Procedure: In this example, the inhibitory effects of Compounds 3 and 9 synthesized in the above preparation examples on the growth of Drosophila orthotopic tumors were tested. As previously described, renal stem cell tumor clusters were induced by expressing Ras in Drosophila renal stem cell (Ras^V12-PMML) clones (Singh et al., 2016). The Drosophila carrying Ras^V12-PMML clones were cultured with normal food at room temperature for 4 days to allow tumor growth. They were then switched to food containing the indicated drugs for an additional 4 days, followed by feeding the Drosophila carrying Ras^V12-PMML with normal food containing DMSO or 5 µM Compound 3 or Compound 9. In the indicated groups, the number of esg>GFP + tumor cells per 5×10^3 µm^2 area was quantified to characterize tumor size.
# Mouse neuroblastoma N2A = assay: Test for Golgi morphology abnormalities (GM130 immunofluorescence); assay type: cell-based; conditions: N2A cells; FIG. 4
# Procedure: GCA, a known Arf1 inhibitor, was used as a positive control.
# Mouse neuroblastoma N2A (N2a, ATCC®CCL-131™) was cultured, treated, and subjected to immunofluorescence staining as previously reported (Wang et al., 2021).
# Arf1 = molecular target: T1, Arf1 (Homo sapiens, UniProt P84077); assay: Inhibition test of Arf1 activation (Active Arf1 pull-down and detection kit, Western blot); assay type: cell-based; conditions: lysate of liver cancer Huh-7 cells; GTP-bound Arf1; FIG. 3
# T1 construct: endogenous in cells; host or cells: Huh-7 liver cancer cells (lysate)
# T1 sequence (P84077 whole entry): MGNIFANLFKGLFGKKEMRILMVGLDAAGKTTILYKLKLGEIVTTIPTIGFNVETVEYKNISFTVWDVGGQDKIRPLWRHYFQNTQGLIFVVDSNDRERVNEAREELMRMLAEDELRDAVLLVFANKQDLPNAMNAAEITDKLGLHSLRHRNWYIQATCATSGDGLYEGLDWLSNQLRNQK
# Procedure: In this example, the inhibitory ability of Compounds 3 and 9 synthesized in the above preparation examples on Arf1 activation was tested. The Pierce Active Arf1 Pull-Down and Detection Kit (Thermo Scientific, Cat#16121) was used with the lysate of liver cancer Huh-7 cells to detect the activated Arf1. It is a complete kit that selectively enriches and detects GTP-bound Arf1 GTPase through specific protein interactions with the GGA3 protein-binding domain.
# CCL5 = assay: Upregulation of chemokine CCL5 expression (quantitative RT-PCR); assay type: cell-based, Murine; conditions: CT26 cells; FIG. 5
# Procedure: In this example, the upregulation of chemokine CCL5 expression induced by the treatment of Compounds 3 and 9 synthesized in the above preparation examples was tested. Quantitative RT-PCR was used to measure the expression level of chemokine CCL5 in CT26 cells treated with DMSO, Compound 3, or Compound 9.
# CT26 colon cancer [2] = assay: Inhibition of CT26 colon cancer in BALB/c mice (Example 48, 10 mg/kg); assay type: in vivo; conditions: gavaged daily, two consecutive weeks, FIG. 11
# Procedure: In this example, the inhibitory effects of Compounds 28, 30, 31, 33, 34, and DU102 synthesized in the above preparation examples on the growth of colon cancer were tested.
# (§1) Murine CT26 cells were inoculated into the left abdomen of 6-week-old male mice at a dose of 5×10^5 cells per mouse. Approximately 7 days later, the mice were randomly divided into two groups: the control group or the compound treatment group. The mice were gavaged daily with either the vehicle control (ddH2O or 5% DMSO in corn oil) or 10 mg/kg of Compounds 28, 30, 31, 33, 34, and DU102 (dissolved in the corresponding vehicle) for two consecutive weeks. Tumor diameters were measured every 2-3 days using a digital caliper (ULINE, Cat^# H-7352), and the tumor volume was calculated using the formula ½ × longitudinal diameter (length) × maximum transverse diameter (width). When the maximum tumor volume reached 3000 mm^3, the mice were euthanized.
# CT26 colon cancer [3] = assay: Inhibition of CT26 colon cancer in BALB/c mice (Example 47, 5 mg/kg); assay type: in vivo; conditions: gavaged daily, two consecutive weeks, FIG. 9 and FIG. 10
# Procedure: In this example, the inhibitory effects of Compounds 9, 11-3, 25, 26, 27, and DU102 on colon cancer growth were tested.
# as §1, with “group. They” for “group. The mice”, “or 5” for “or 10”, “Compounds 9, 11-3, 25, 26, or 27” for “Compounds 28, 30, 31, 33, 34, and DU102”, “reached 2000” for “reached 3000”
compound,measurement,setting,value
"N-(1H-Indol-5-yl)-methylthieno[2,3-d]pyrimidin-4-amine [Compound 3]",phosphorylation level of P65,NF-κB signaling pathway,increase the phosphorylation level of P65
same,orthotopic tumor growth in Drosophila,[1],effectively inhibit orthotopic tumor growth
same,"Golgi morphology (Golgi apparatus defects, distribution of Golgi marker GM130)",Mouse neuroblastoma N2A,induce Golgi apparatus defects; also recorded: effectively induce morphological changes in the Golgi apparatus
same,inhibition of Arf1 activation,Arf1,effectively inhibit the activation of Arf1; also recorded: effective inhibitors
same,expression of the chemokine CCL5,CCL5,effectively promote the expression
"Cc1nc2cc(/C=N/Nc3ncnc4sc5c(c34)CCCCCC5)ccc2[nH]1 [Compound 33, (E)-4-(2-((2-Methyl-1H-benzo[d]imidazol-5-yl)methylene)hydrazinyl)-5,6,7,8,9,10-hexahydrocycloocta[4,5]thieno[2,3-d]pyrimidine]",inhibition of CT26 colon cancer,CT26 colon cancer [2],effectively inhibit CT26 colon cancer
"Cc1nc2ccc(Nc3ncnc4scc(C)c34)cc2[nH]1 [Compound 25, 5-Methyl-N-(2-methyl-1H-benzo[d]imidazol-6-yl)thieno[2,3-d]pyrimidin-4-amine]",inhibition of CT26 colon cancer,CT26 colon cancer [3],effectively inhibit CT26 colon cancer
"Fc1cc(F)c2c(c1)[C@H]1C=CC[C@H]1C(c1cccnc1)N2 (stereo partly shown) [GCA, reference compound]",phosphorylation level of P65,NF-κB signaling pathway,increase the phosphorylation level of P65
same,"Golgi morphology (Golgi apparatus defects, distribution of Golgi marker GM130)",Mouse neuroblastoma N2A,effectively induce morphological changes in the Golgi apparatus
"Cc1nc2cc(Nc3ncnc4sc5c(c34)CCCCCC5)ccc2[nH]1 [Compound 31, N-(2-Methyl-1H-benzo[d]imidazol-5-yl)-5,6,7,8,9,10-hexahydrocycloocta[4,5]thieno[2,3-d]pyrimidin-4-amine]",inhibition of CT26 colon cancer,CT26 colon cancer [2],effectively inhibit CT26 colon cancer
"Cc1nc2ccc(Nc3ncnc4sc5c(c34)CCNC5)cc2[nH]1 [Compound 28, N-(2-Methyl-1H-benzo[d]imidazol-6-yl)-5,6,7,8-tetrahydropyrido[4',3':4,5]thieno[2,3-d]pyrimidin-4-amine]",inhibition of CT26 colon cancer,CT26 colon cancer [2],effectively inhibit CT26 colon cancer
"Cn1cnc2cc(Nc3ncnc4sc5c(c34)CCN(C(=O)c3ccc(Cl)s3)C5)ccc21 [Compound 26, (5-Chlorothiophen-2-yl)(4-((1-methyl-1H-benzo[d]imidazol-5-yl)amino)-5,8-dihydropyrido[4',3':4,5]thieno[2,3-d]pyrimidin-7(6H)-yl)methanone]",inhibition of CT26 colon cancer,CT26 colon cancer [3],effectively inhibit CT26 colon cancer
"CC(=O)N1CCc2c(sc3ncnc(Nc4ccc5nc(C)[nH]c5c4)c23)C1 [Compound 30, 1-(4-((2-Methyl-1H-benzo[d]imidazol-6-yl)amino)-5,8-dihydropyrido[4',3':4,5]thieno[2,3-d]pyrimidin-7(6H)-yl)ethanone]",inhibition of CT26 colon cancer,CT26 colon cancer [2],effectively inhibit CT26 colon cancer
